Results published in article PMC1129089, “Identification and characterization of a novel mammalian Mg^2+ transporter with channel-like properties” (BMC Genomics, 2005).

Assays:
hMagT1 (human MagT1) [1] = target: T1, hMagT1 (human MagT1) (Homo sapiens, UniProt Q9H0U3); assay: two-microelectrode voltage clamp, Xenopus oocytes, Mg2+-evoked current; type: cell-based; details: 10 μM compound, -125 mV, n = 5; activator; control current 0.59 ± 0.09 μA
T1 construct: full-length ORF, 335 residues, 38,036 Da; subcloned in pEYFP-N1, cRNA injected in Xenopus laevis oocytes; no fusion tag stated
T1 sequence (Q9H0U3 30-335): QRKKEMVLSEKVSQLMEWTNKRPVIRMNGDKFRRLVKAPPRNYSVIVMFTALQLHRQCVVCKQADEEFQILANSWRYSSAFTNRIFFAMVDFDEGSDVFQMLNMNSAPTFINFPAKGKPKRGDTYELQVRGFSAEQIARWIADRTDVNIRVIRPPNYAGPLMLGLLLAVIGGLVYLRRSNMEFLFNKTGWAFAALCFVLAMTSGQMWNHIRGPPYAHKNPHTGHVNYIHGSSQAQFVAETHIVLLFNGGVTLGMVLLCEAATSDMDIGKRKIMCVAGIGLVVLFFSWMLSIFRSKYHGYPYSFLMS

hMagT1 (human MagT1) [2] = target: T1, hMagT1 (human MagT1); assay: as above; type: cell-based; details: 10 μM compound, -125 mV, n = 7; inhibitor; control current 0.59 ± 0.09 μA

COC(=O)C1=C(C)NC(C)=C([N+](=O)[O-])C1c1ccccc1C(F)(F)F (centres unmarked) [BAY K8644]
current at 10 μM (hMagT1 (human MagT1) [1]): 0.80 ± 0.18 μA

CCOC(=O)C1=C(C)NC(C)=C(C(=O)OC)C1c1cccc([N+](=O)[O-])c1 (centres unmarked) [nitrendipine]
residual current at 10 μM (hMagT1 (human MagT1) [2]): 0.15 ± 0.02 μA
